{"source": "patent US8716478B2", "about": "“Boron-containing small molecules” (Anacor Pharmaceuticals, Inc., priority 2010, dated 2014)", "key": {"human PDE4 enzyme": {"tested_on": "human PDE4 enzyme", "assay": "Phosphodiesterase 4 (PDE4) inhibition, semi-purified enzyme from human U937 cells", "type": "biochemical", "details": "1 μM cAMP, 20 minutes at 25° C.; read-out: PDE4 IC50"}, "[1]": {"assay": "Pharmacokinetics and oral bioavailability after IV and PO dosing", "type": "in vivo, female CD-1 mice", "details": "plasma", "method": "The objective of this study was to evaluate the pharmacokinetics and oral bioavailability of PDE4 inhibitors following intravenous (IV) administration and oral (PO) doses in female CD-1 mice.\nAfter dosing, blood samples were collected through 24 h, twice from each animal at specific times (3 mice/time point), into microcentrifuge tubes containing K2EDTA (anticoagulant), stored on wet ice and processed for plasma. The plasma samples were analyzed for concentrations of parent compound by LC/MS/MS using an internal standard/peak area method. Pharmacokinetic analysis of the mean plasma concentration-time profiles following IV and PO administration was performed.\n[…] Dosing solutions for intravenous administration were prepared in 55% PEG300/25% PG/20% water. Oral dosing used a suspension prepared in 1% CMC in water with 0.1% Tween 80.\nAfter dosing, blood samples were collected through 24 h, twice from each animal via retro-orbital bleed (˜0.1 mL, 1st time point) or cardiac puncture (˜0.6 mL, 2nd time point) at specific times (3 mice/time point), into microcentrifuge tubes containing K2EDTA (anticoagulant) and stored on wet ice prior to processing.\nPlasma was prepared by centrifugation of blood samples for 6 min at approximately 2000×g or 6000 rpm at 4° C. All processed plasma samples (˜50 μL and 300 μL) were transferred to analysis tubes, placed on dry ice immediately and later stored at −80° C. until analysis for concentrations of experimental compound by LC/MS/MS.\nMouse IV clearance, Mouse Oral AUC and Oral Bioavailability are provided below. 6-(1-Hydroxy-1,3-dihydrobenzo[c][1,2]oxaborol-5-yloxy)-2-(2-isopropoxyethoxy)nicotinonitrile (D140) and 6-(1-hydroxy-1,3-dihydrobenzo[c][1,2]oxaborol-5-yloxy)-2-(4-oxopentyloxy)nicotinonitrile (D141) are disclosed in U.S. patent application Ser. No. 12/399,015, filed Mar. 5, 2009."}, "[2]": {"tested_on": "TNF-α in peripheral blood mononuclear cells (PBMCs)", "assay": "TNF-α inhibition in LPS-stimulated peripheral blood mononuclear cells", "type": "cell-based", "details": "PBMC; PBMCs, LPS 1 μg/mL for 24 h; read-out: Proinflammatory TNF-α IC50", "in_short": "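Pooled human PBMCs (10-20 donors), 5×10^5 cells/well in RPMI with 10% FCS, <2% DMSO final, stimulated with LPS at 1 μg/mL for 24 h with compound. TNF-α in supernatant measured by cytometric bead array; IC50 by four-parameter logistic fit.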"}, "TNF-α": {"tested_on": "TNF-α", "assay": "In vivo TNF-α release in LPS treated mice", "parameters": "species or system Swiss Webster mice"}, "Brugia malayi": {"tested_on": "Brugia malayi", "assay": "Brugia malayi in vitro assay, adult female worms", "details": "50 uM", "method": "Adult female worms are shipped from TRS Labs Inc. (Nonglak Supakorndej, Lab Director, 295 Research Dr., Athens, Ga. 30605; 706-549-0764) via Fed Ex. Individual worms are shipped in 2 mls vials with RPMI on Mondays and arrive at the […] Center lab on Tuesday mornings. Individual worms are poured into each well (24-well tissue culture plates) to avoid handling worms since they are very delicate and easily broken. Transport media is removed and replaced with 0.5 mls of RPMI-1640 (25 mM HEPES, 2 g/L NaHCO3, Antibiotic/Antimycotic, 5% HI FBS). Worms are maintained in a 37° C. 5% CO2 incubator. Compounds are added directly to each duplicate well (5 ul of 5 mM for a final concentration of 50 uM). DMSO (5 ul) is used as a negative control and Ivermectin (Sigma) is used as a positive control at 100 uM/well and 20 uM/well. Adult filarial nematodes can shed/give birth to microfilarial worms (mf) during the course of the assay. Wells were reviewed for the presence of mf, and the viability of mf, by visual observation of the well on the last day of observation (Day 7). Plates are examined once a day for 4-7 days. […] If changes are observed, worms are more closely examined under a dissecting microscope."}}, "note": "pIC50: −log10 of the molar value.", "data": [{"smiles": "CC(=O)CCCOc1nc(Oc2ccc3c(c2)COB3O)c(Cl)cc1C#N", "note": "[Compound D231, 5-Chloro-6-(1-hydroxy-1,3-dihydrobenzo[c][1,2]oxaborol-5-yloxy)-2-(4-oxopentyloxy)nicotinonitrile]", "values": [{"measurement": "pIC50", "setting": "human PDE4 enzyme", "value": 9.10}, {"measurement": "bioavailability", "setting": "[1]; female, CD-1, mouse, po", "value": 96, "unit": "%"}, {"measurement": "AUC", "setting": "[1]; female, CD-1, mouse, 10 mg/kg oral suspension dose", "value": 8500, "unit": "ng·h/mL"}, {"measurement": "clearance", "setting": "[1]; mouse, 5 mg/kg, female CD-1 mice, intravenous", "value": 25, "unit": "mL/min/kg"}, {"measurement": "pIC50", "setting": "[2]", "value": 9.36}, {"measurement": "% Inhibition of TNFa Blood Levels in LPS Treated Mice", "setting": "TNF-α; Oral Dose 0.03 mg/kg", "value": 0, "unit": "%"}, {"measurement": "% Inhibition of TNFa Blood Levels in LPS Treated Mice", "setting": "TNF-α; Oral Dose 0.1 mg/kg", "value": 22, "unit": "%"}, {"measurement": "% Inhibition of TNFa Blood Levels in LPS Treated Mice", "setting": "TNF-α; Oral Dose 0.3 mg/kg", "value": 33.6, "unit": "%"}, {"measurement": "% Inhibition of TNFa Blood Levels in LPS Treated Mice", "setting": "TNF-α; Oral Dose 1 mg/kg", "value": 69.5, "unit": "%"}, {"measurement": "% Inhibition of TNFa Blood Levels in LPS Treated Mice", "setting": "TNF-α; Oral Dose 1.5 mg/kg", "value": 58, "unit": "%"}, {"measurement": "% Inhibition of TNFa Blood Levels in LPS Treated Mice", "setting": "TNF-α; Oral Dose 3 mg/kg", "value": 75.6, "unit": "%"}, {"measurement": "% Inhibition of TNFa Blood Levels in LPS Treated Mice", "setting": "TNF-α; Oral Dose 5 mg/kg", "value": 85.5, "unit": "%"}, {"measurement": "% Inhibition of TNFa Blood Levels in LPS Treated Mice", "setting": "TNF-α; Oral Dose 10 mg/kg", "value": 85.6, "unit": "%"}, {"measurement": "% Inhibition of TNFa Blood Levels in LPS Treated Mice", "setting": "TNF-α; Oral Dose 15 mg/kg", "value": 81.3, "unit": "%"}, {"measurement": "% Inhibition of TNFa Blood Levels in LPS Treated Mice", "setting": "TNF-α; Oral Dose 30 mg/kg", "value": 97.3, "unit": "%"}, {"measurement": "worm activity score / phenotype, Day 3", "setting": "Brugia malayi; trial one", "value": "2 to 3"}, {"measurement": "worm activity score / phenotype, Day 3", "setting": "Brugia malayi; trial two", "value": "2 to 3"}]}]}
